Reference: patent US11618744B2, “Benzoimidazoles as prolyl hydroxylase inhibitors” (Janssen Pharmaceutica NV, priority 2008, dated 2023)

System: Hep-3B cells
Assay: Cellular assay: erythropoietin (EPO) secretion in Hep-3B cells
Type: cell-based, human
Settings: 24 h incubation, compound at 100 μM, percentage of EPO secretion of control compound 7-[(4-Chloro-phenyl)-(5-methyl-isoxazol-3-ylamino)-methyl]-quinolin-8-ol

SMILES	Cellular % EPO Stimulation [%]
O=C(O)c1cnn(-c2nc3cc(-c4cccc(C(F)(F)F)c4)ccc3[nH]2)c1 [Example 17, 1-[5-(3-Trifluoromethyl-phenyl)-1H-benzoimidazol-2-yl]-1H-pyrazole-4-carboxylic acid]	5.8
O=C(O)c1cnn(-c2nc3cc(-c4cccc(OCc5ccccc5Cl)c4)ccc3[nH]2)c1 [Example 13, 1-{5-[3-(2-Chloro-benzyloxy)-phenyl]-1H-benzoimidazol-2-yl}-1H-pyrazole-4-carboxylic acid]	18
Cc1cc2nc(-n3cc(C(=O)O)cn3)[nH]c2cc1C [Example 5, 1-(5,6-Dimethyl-1H-benzoimidazol-2-yl)-1H-pyrazole-4-carboxylic acid]	2.1
O=C(O)c1cnn(-c2nc3ccccc3[nH]2)c1 [Example 1, 1-(1H-Benzoimidazol-2-yl)-1H-pyrazole-4-carboxylic acid]	7.1
Cc1nn(-c2nc3cc(Cl)c(Cl)cc3[nH]2)c(C)c1C(=O)O [Example 22, 1-(5,6-Dichloro-1H-benzoimidazol-2-yl)-3,5-dimethyl-1H-pyrazole-4-carboxylic acid]	0.47
